Measured values as given in patent US20260250320A1, “LIPIDATED PEPTIDE INHIBITORS OF INTERLEUKIN-23 RECEPTOR” (Janssen Pharmaceutica NV, priority 2023, published 2026).
*1 amine or outer side, *2 acyl side, *3 side chain or, on linkers, in order; H or OH if unused. Where a SMILES comes first, the peptide text is derived from it. Bridges are numbered along the chain shown (N, C = ends). Roman numbers before positions name the chains, in order. Side-chain parts run from the residue outwards. [ ]: non-standard residue; d: D form. The star is where a group is joined. X36 = C[N+](C)(C)CCOCCOCCC(=O)C[C@H](CCCCCC(=O)COCCOCCNC(=O)COCCOCCNC(=O)CC[C@H](NC(=O)CCCCCCCCCCCCCCCCC(=O)O)C(=O)O)C(=O)*; X34 = O=C(O)CCCCCCCCCCCCCCCCC(=O)C[C@@H](CCC(=O)NCCOCCOCC(=O)NCCOCCOCCN*)C(=O)O; X25 = C[N+](C)(C)C[C@@H](CC(=O)O)NC(=O)CCC(=O)CCCCC[C@H](N[*:1])C(=O)[*:2]; X19 = CC(C)(S[*:2])[C@H](N[*:3])C(=O)C[C@@H](Cc1ccc(OCCN)cc1)C(=O)[*:1]; Me3N+(CH2)2O(CH2)2O(CH2)2CO = C[N+](C)(C)CCOCCOCCC(=O)*; PEG12 = NCCOCCOCCOCCOCCOCCOCCOCCOCCOCCOCCOCCOCCC(=O)O; Trp(7-Me) = Cc1cccc2c(C[C@H](N)C(=O)O)c[nH]c12; C20 diacid = O=C(O)CCCCCCCCCCCCCCCCCCC(=O)*; C18 diacid = O=C(O)CCCCCCCCCCCCCCCCC(=O)*; X6 = CN(CC[C@H](N[*:1])C(=O)[*:2])[*:3]; γGlu = O=C(O)[C@H](CCC(=O)[*:2])N[*:1]; 2Nal = N[C@@H](Cc1ccc2ccccc2c1)C(=O)O; AEF = NCCOc1ccc(C[C@H](N)C(=O)O)cc1; X2 = C[N+](C)(C)C[C@@H](CC(=O)O)N*; 3Pal = N[C@@H](Cc1cccnc1)C(=O)O; Lys(Me) = CNCCCC[C@H](N)C(=O)O; Pen = CC(C)(S)[C@H](N)C(=O)O; Suc = O=C(CCC(=O)[*:2])[*:1]; Thp = NC1(C(=O)O)CCOCC1; X1 = C[N+](C)(C)CCCCC*; AEEA = NCCOCCOCC(=O)O; Sar = CNCC(=O)O

Legend:
[1] = system: IL-23-stimulated phosphorylated STAT3 in peripheral blood mononuclear cells (PBMCs); assay: PBMC pSTAT3 Assay; format: cell-based; settings: PBMCs from healthy donors; 30 min preincubation with peptide; IL-23 5 ng/mL for 30 min; phospho-STAT3 by MSD
In short: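 Healthy-donor PBMCs expanded 4 days on anti-CD3 with 100 ng/mL IL-1β, starved ~4 h in RPMI-0.1% BSA, preincubated 30 min with peptide, then stimulated 30 min at 37 °C with 5 ng/mL IL-23. Lysate pSTAT3 measured by MSD phospho-STAT panel; IC50 derived.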

[2] = biological target: T1, IL-23R (Homo sapiens, UniProt Q5VWK5); assay: IL23R Reporter Assay; format: cell-based; settings: HEK293 cells containing IL-23R, IL-12Rβ1 and STAT-inducible firefly luciferase reporter; 10 ng/mL IL-23 (EC90); 5 h
T1 construct: HEK293 cells containing IL-23R, IL-12Rβ1 and a firefly luciferase reporter gene driven by a STAT-inducible promoter (Promega); host or cells: HEK293
T1 sequence (Q5VWK5 24-629): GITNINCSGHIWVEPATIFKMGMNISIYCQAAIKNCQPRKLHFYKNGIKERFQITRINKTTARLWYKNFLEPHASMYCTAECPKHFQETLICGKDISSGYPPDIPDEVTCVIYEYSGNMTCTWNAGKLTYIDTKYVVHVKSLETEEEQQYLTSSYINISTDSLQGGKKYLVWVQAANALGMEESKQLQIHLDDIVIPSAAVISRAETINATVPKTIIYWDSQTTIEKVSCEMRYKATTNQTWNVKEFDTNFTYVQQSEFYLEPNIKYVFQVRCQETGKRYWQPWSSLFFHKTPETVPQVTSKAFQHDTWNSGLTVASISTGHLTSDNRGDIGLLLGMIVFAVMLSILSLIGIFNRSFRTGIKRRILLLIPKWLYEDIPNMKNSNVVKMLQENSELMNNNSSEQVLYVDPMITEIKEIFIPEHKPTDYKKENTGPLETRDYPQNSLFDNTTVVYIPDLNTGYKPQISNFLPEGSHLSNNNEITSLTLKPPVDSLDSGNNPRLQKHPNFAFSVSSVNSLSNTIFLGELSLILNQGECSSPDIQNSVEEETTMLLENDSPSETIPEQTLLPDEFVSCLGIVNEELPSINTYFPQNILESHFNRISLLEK
In short: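 HEK293 cells carrying IL-23R, IL-12Rβ1 and a STAT-driven firefly luciferase reporter (4000 cells/well) received compound, then 10 ng/mL IL-23 solution (EC90), and were incubated for 5 h at 37° C. BioGlo luminescence was normalised to IL-23 alone (0%) and 30 μM control inhibitor (100%). IC50 came from a 4-parameter Hill fit.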

With `CC(=O)N(C)CCCC[C@@H]1NC(=O)[C@H](Cc2c[nH]c3c(C)cccc23)NC(=O)[C@H]([C@@H](C)O)NC(=O)[C@H](CC(=O)N(C)C)NC(=O)[C@@H](NC(=O)CCOCCOCC[N+](C)(C)C)C(C)(C)SSC(C)(C)[C@@H](C(=O)N[C@@H](Cc2ccc(OCCCCC[N+](C)(C)C)cc2)C(=O)N[C@@H](Cc2ccc3ccccc3c2)C(=O)NC2(C(=O)N[C@@H](CCCCN(C)C(C)=O)C(=O)N[C@@H](CC(N)=O)C(=O)N[C@@H](Cc3cccnc3)C(=O)N(C)CC(=O)NCCOCCOCCNC(=O)COCCOCCNC(=O)CC[C@H](CC(=O)CCCCCCCCCCCCCCCCC(=O)O)C(=O)O)CCOCC2)NC1=O` [compound 145, cPEG3aCO-Pen(3)-N(N(Me)2)-T-7MeW-K(NMeAc)-Pen(3)-TMAPF-2Nal-THP-K(NMeAc)-N-3Pya-Sar-CO(PEG2PEG2gEC18OH)] ({Me3N+(CH2)2O(CH2)2O(CH2)2CO}-[Pen]D(NMe2)T[Trp(7-Me)][Lys(Me)](Ac)[Pen]Y(X1)[2Nal][Thp][Lys(Me)](Ac)N[3Pal][Sar]-X34; disulfide 1-6) the IC50 [1] was ≥ 5 nM and the IC50 [2] was 50 to 500 nM.
In the case of `Cc1cccc2c(C[C@@H]3NC(=O)[C@H]([C@@H](C)O)NC(=O)[C@H](CC(=O)N(C)C)NC(=O)[C@@H](NC(=O)COCCOCCNC(=O)COCCOCCNC(=O)CC[C@H](NC(=O)CCCCCCCCCCCCCCCCC(=O)O)C(=O)O)C(C)(C)SSC[C@@H](C(=O)N[C@@H](Cc4ccc(OCCN)cc4)C(=O)N[C@@H](Cc4ccc5ccccc5c4)C(=O)NC4(C(=O)N[C@@H](CCN(C)C(=O)CCC(=O)N[C@H](CC(=O)O)C[N+](C)(C)C)C(=O)N[C@@H](CC(N)=O)C(=O)N[C@@H](Cc5cccnc5)C(=O)N(C)CC(=O)N(C)C)CCOCC4)NC(=O)[C@H](CCN(C)C(=O)CCC(=O)N[C@H](CC(=O)O)C[N+](C)(C)C)NC3=O)c[nH]c12` [compound 138, HOC18gEPEG2PEG2CO-Pen(3)-N(N(Me)2)-T-7MeW-Dab(NMecarn)-Pen(3)-AEF-2Nal-THP-Dab(NMecarn)-N-3Pya-Sar-CON(Me)2] ({C18 diacid-γGlu-AEEA-AEEA}-[Pen]D(NMe2)T[Trp(7-Me)][X6]([Suc-X2])C[AEF][2Nal][Thp][X6]([Suc-X2])N[3Pal][Sar]-NMe2; disulfide 1-6), the IC50 [1] is reported as < 0.5 nM and the IC50 [2] is reported as < 50 nM.
`CC(=O)N(C)CCCC[C@@H]1NC(=O)[C@H](Cc2c[nH]c3ccccc23)NC(=O)[C@H]([C@@H](C)O)NC(=O)[C@H](CCCCNC(=O)COCCOCCNC(=O)COCCOCCNC(=O)CC[C@H](NC(=O)CCCCCCCCCCCCCCCCC(=O)O)C(=O)O)NC(=O)[C@@H](NC(=O)CCOCCOCC[N+](C)(C)C)C(C)(C)SSC(C)(C)[C@@H](C(=O)N[C@@H](Cc2ccc(OCCCCC[N+](C)(C)C)cc2)C(=O)N[C@@H](Cc2ccc3ccccc3c2)C(=O)NC2(C(=O)N[C@@H](CCCCN(C)C(C)=O)C(=O)N[C@@H](CC(N)=O)C(=O)N[C@@H](Cc3cccnc3)C(=O)N(C)CC(=O)N(C)C)CCOCC2)NC1=O` [compound 122, cPEG3aCO-Pen(3)-K(PEG2PEG2gEC18OH)-T-7MeW-K(NMeAc)-Pen(3)-TMAPF-2Nal-THF-K(NMeAc)-N-3Pya-Sar-CON(Me)2] ({Me3N+(CH2)2O(CH2)2O(CH2)2CO}-[Pen]K([AEEA-AEEA-γGlu-C18 diacid])TW[Lys(Me)](Ac)[Pen]Y(X1)[2Nal][Thp][Lys(Me)](Ac)N[3Pal][Sar]-NMe2; disulfide 1-6) was tested, and the IC50 [1] was < 0.5 nM and the IC50 [2] was 50 to 500 nM.
`CC(=O)NCCCC[C@@H]1NC(=O)[C@H](Cc2c[nH]c3c(C)cccc23)NC(=O)[C@H]([C@@H](C)O)NC(=O)[C@H](CCCCCC(=O)CCC(=O)N[C@H](CC(=O)O)C[N+](C)(C)C)NC(=O)[C@@H](NC(=O)[C@@H](CCCNC(=N)N)NC(C)=O)C(C)(C)SSC(C)(C)[C@@H](C(=O)C[C@@H](Cc2ccc(OCCN)cc2)C(=O)N[C@@H](Cc2ccc3ccccc3c2)C(=O)NC2(C(=O)N[C@@H](CCCCNC(=O)COCCOCCNC(=O)COCCOCCNC(=O)CC[C@H](NC(=O)CCCCCCCCCCCCCCCCC(=O)O)C(=O)O)C(=O)N[C@@H](CC(N)=O)C(=O)N[C@@H](Cc3cccnc3)C(=O)N(C)CC(N)=O)CCOCC2)NC1=O` [compound 37, MeCO-r-Pen(3)-K(d)-T-7MeW-K(Ac)-Pen(3)-AEF-2Nal-THP-K(PEG2PEG2gEC18OH)-N-3Pya-Sar-CONH2] (I: [2Nal][Thp]K([AEEA-AEEA-γGlu-C18 diacid])N[3Pal][Sar]-NH2 / II: Ac-[dR][Pen][X25]T[Trp(7-Me)]K(Ac); linker I:N-II:2-II:C via X19) was tested, and the IC50 [1] was < 0.5 nM and the IC50 [2] was < 50 nM.
With `CC(=O)NCCCC[C@@H]1NC(=O)[C@H](Cc2c[nH]c3c(C)cccc23)NC(=O)[C@H]([C@@H](C)O)NC(=O)[C@H](CC(N)=O)NC(=O)[C@@H](NC(=O)[C@@H](CCCNC(=N)N)NC(C)=O)C(C)(C)SSC(C)(C)[C@@H](C(=O)N[C@@H](Cc2ccc(OCCN)cc2)C(=O)N[C@@H](Cc2ccc3ccccc3c2)C(=O)NC2(C(=O)N[C@@H](CCC(=O)O)C(=O)N[C@@H](CC(N)=O)C(=O)N[C@@H](Cc3cccnc3)C(=O)N(C)CC(=O)N[C@@H](CCCCNC(=O)CCOCCOCCOCCOCCOCCOCCOCCOCCOCCOCCOCCOCCNC(=O)CC[C@H](NC(=O)CCCCCCCCCCCCCCCCCCC(=O)O)C(=O)O)C(N)=O)CCOCC2)NC1=O` [compound 134, MeCO-r-Pen(3)-N-T-7MeW-K(Ac)-Pen(3)-AEF-2Nal-THP-E-N-3Pya-Sar-K(PEG12gEC20OH)-CONH2] (Ac-[dR][Pen]NT[Trp(7-Me)]K(Ac)[Pen][AEF][2Nal][Thp]EN[3Pal][Sar]K([PEG12-γGlu-C20 diacid])-NH2; disulfide 2-7) the IC50 [1] was < 0.5 nM and the IC50 [2] was < 50 nM.
`CC(=O)NCCCC[C@@H]1NC(=O)[C@H](Cc2c[nH]c3c(C)cccc23)NC(=O)[C@H]([C@@H](C)O)NC(=O)[C@H](CC(N)=O)NC(=O)[C@@H](NC(C)=O)C(C)(C)SSC(C)(C)[C@@H](C(=O)N[C@@H](Cc2ccc(OCCNC(=O)COCCOCCNC(=O)COCCOCCNC(=O)CC[C@H](NC(=O)CCCCCCCCCCCCCCCCC(=O)O)C(=O)O)cc2)C(=O)N[C@@H](Cc2ccc3ccccc3c2)C(=O)NC2(C(=O)N[C@@H](CCCCNC(=O)CCC(=O)N[C@H](CC(=O)O)C[N+](C)(C)C)C(=O)N[C@@H](CC(N)=O)C(=O)N[C@@H](Cc3cccnc3)C(=O)N(C)CC(N)=O)CCOCC2)NC1=O` [compound 8, MeCO-Pen(3)-N-T-7MeW-K(Ac)-Pen(3)-AEF(PEG2PEG2gEC18OH)-2Nal-THP-K(d)-N-3Pya-Sar-CONH2] (Ac-[Pen]NT[Trp(7-Me)]K(Ac)[Pen][AEF]([AEEA-AEEA-γGlu-C18 diacid])[2Nal][Thp]K([Suc-X2])N[3Pal][Sar]-NH2; disulfide 1-6) was tested, and the IC50 [1] was < 0.5 nM and the IC50 [2] was < 50 nM.
With `CC(=O)N(C)CCCC[C@@H]1NC(=O)[C@H](Cc2c[nH]c3c(C)cccc23)NC(=O)[C@H]([C@@H](C)O)NC(=O)[C@H](CC(=O)N(C)C)NC(=O)[C@@H](NC(=O)[C@@H](CCCCCC(=O)COCCOCCNC(=O)COCCOCCNC(=O)CC[C@H](NC(=O)CCCCCCCCCCCCCCCCC(=O)O)C(=O)O)CC(=O)CCOCCOCC[N+](C)(C)C)C(C)(C)SSC(C)(C)[C@@H](C(=O)N[C@@H](Cc2ccc(OCCCCC[N+](C)(C)C)cc2)C(=O)N[C@@H](Cc2ccc3ccccc3c2)C(=O)NC2(C(=O)N[C@@H](CCCCN(C)C(C)=O)C(=O)N[C@@H](CC(N)=O)C(=O)N[C@@H](Cc3cccnc3)C(=O)N(C)CC(=O)N(C)C)CCOCC2)NC1=O` [compound 131, cPEG3aCO-k(PEG2PEG2gEC18OH)-Pen(3)-N(N(Me)2)-T-7MeW-K(NMeAc)-Pen(3)-TMAPF-2Nal-THP-K(NMeAc)-N-3Pya-Sar-CON(Me)2] (X36-[Pen]D(NMe2)T[Trp(7-Me)][Lys(Me)](Ac)[Pen]Y(X1)[2Nal][Thp][Lys(Me)](Ac)N[3Pal][Sar]-NMe2; disulfide 1-6) the IC50 [1] was < 0.5 nM and the IC50 [2] was < 50 nM.
